The structures appear in SMILES notation. Values joined by “and” are separate entries in the source; they are usually repeats but may differ in a detail not shown here. Equal entries are not always repeated.

The IC50 is the concentration that inhibits the measured activity by half. Read a high IC50 as weaker potency in that assay. By melting point is commonly meant the temperature, or range, at which the solid turns liquid. For orientation: EC50 means the concentration needed to bring the measured effect to its halfway point. Higher therefore signals weaker potency.

Data set [1] concerns the target T1, TYR from Agaricus bisporus (AbTYR) (Agaricus bisporus, UniProt C7FF04). Kind of data set: Inhibition of diphenolase activity of AbTYR (L-DOPA as substrate).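 Note: absorbance measured spectrophotometrically with L-DOPA as substrate, inhibition expressed as percent relative to control sample, IC50 interpolated from dose-response curves.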 The note with it: IC50 [μM]±SD, inhibition of diphenolase activity of AbTYR, L-DOPA substrate, three replicates.
Description: absorbance was measured after 60 or 1 min of incubation time in the reaction mixture containing
L-tyrosine or L-DOPA, respectively. The inhibitory activity was expressed as inhibition percentage
calculated by interpolation of the dose-response curves. Kojic acid [5-hydroxy-2-(hydroxymethyl)-
4H-pyran-4-one], a fungal secondary metabolite used as skin whitening agent, was employed as a
positive standard (10–50 μM). A spectrophotometer (Agilent Cary 60 UV-Vis Spectrophotometer)
The inhibition kinetics on the tyrosinase were studied using Lineweaver-Burk double reciprocal
plots. The reaction mixture consisted of four different concentrations of the substrate L-DOPA
(0.6–5 mM), and mushroom tyrosinase in phosphate buffer (0.05 M, pH 6.8). Three different
concentrations were used for the analysis. Preincubation and measurement time were the same
as discussed in mushroom tyrosinase inhibition assay. The Michaelis-Menten constant (Km) and
maximal velocity (Vmax) of tyrosinase were determined by Lineweaver-Burk plots.
In another data set the test system is B16F10 cells. Kind of data set: Cell viability assay (MTT). The data set is classed as cell-based, Murine. The note with it: 48 h, until a concentration of 10 μM. The protocol: Murine melanoma B16F10 cells (CRL‐6475) were cultured as previous reported.[17]
3‐(4,5‐Dimethylthiazol‐2‐yl)‐2,5‐diphenyltetrazolium bromide (MTT) was used to measure the cells viability. Cells were seeded in 96‐well plates for 24 hours with a density of 5x10^3 for well. Cells were then treated for 48 h with compounds (ranging from 4 μM to 100 μM). After incubation at 37 °C and 5 % of CO2, 100 μL of MTT reagent were added to the cells and incubated 3 h at 37 °C. After adding DMSO the absorbance was determined at 560 nm. The amount of living cells in treated samples relative to untreated controls (100 %) provided the cell viability. The mean value and standard deviation (SD) were calculated from triplicate experiments.
different concentrations of compounds (4-100 μM) and their viability was evaluated by MTT assay. Data
represent mean ± SD of triplicate experiments.

Data set [2] concerns the target T1, TYR from Agaricus bisporus (AbTYR). Kind of data set: Inhibition of monophenolase activity of AbTYR (L-Tyr as substrate). In kind it is biochemical. Also on record: purchased Sigma Chemical Co. (St. Louis, MO, USA). Conditions: 40 μM (Figure S69). The protocol:
Mushroom tyrosinase inhibition assay
6.8). […] Subsequently, 0.05 mL of
L-tyrosine or L-DOPA, respectively.
respect to control sample.
positive standard (10–50 μM).
was used for absorbance measurements.
Kinetic analysis of the tyrosinase inhibition

A short description of data set [3]: ABTS radical scavenging antioxidant assay. Conditions: mean ± SD of three independent experiments. Here is the method: ABTS [2,20‐azinobis‐(3‐ethylbenzothiazoline‐6‐sulfonic acid)] assay was used to determine the total free radical‐scavenging capacity of compounds. 6‐hydroxy‐2,5,7,8‐tetramethylchromane‐2‐carboxylic acid (Trolox) was used as the reference antioxidant.[15]
The ABTS⋅^+ method is based on the capacity of an antioxidant to scavenge the free ABTS⋅^+. To produce this radical an aqueous mixture of 7 mM ABTS with 2.45 mM potassium persulfate was required.
The ABTS solution was kept in the dark, at room temperature, for 24 h before use. The ABTS⋅^+ mixture was diluted, and each compound (10 μL) was added to solution. After 1 min of incubation the absorbance was recorded at 734 nm. Afterwards the decrease in A734 was calculated and referred to the Trolox standard curve. Antioxidant activity was expressed as concentration of the compound to give a 50 % reduction in the original absorbance (EC50).

T1 sequence (C7FF04 1-392 limits assumed): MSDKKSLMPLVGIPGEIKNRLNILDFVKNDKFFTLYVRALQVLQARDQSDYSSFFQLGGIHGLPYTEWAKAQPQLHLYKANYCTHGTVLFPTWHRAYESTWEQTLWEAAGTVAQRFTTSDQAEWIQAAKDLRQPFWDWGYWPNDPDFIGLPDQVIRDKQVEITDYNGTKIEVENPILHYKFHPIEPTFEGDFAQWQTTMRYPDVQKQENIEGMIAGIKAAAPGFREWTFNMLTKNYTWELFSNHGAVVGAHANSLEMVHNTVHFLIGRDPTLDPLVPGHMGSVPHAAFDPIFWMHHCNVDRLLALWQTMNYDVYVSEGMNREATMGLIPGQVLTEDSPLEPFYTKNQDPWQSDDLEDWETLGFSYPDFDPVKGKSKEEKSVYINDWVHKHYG

`O=C(c1ccc(F)cc1F)N1CCN(c2ccc(O)cc2)CC1` [compound 25, (4‐(4‐Hydroxyphenyl)piperazin‐1‐yl)(2,4‐difluorophenyl)methanone] returned a melting point of 180 to 181 °C. For the same compound, it took 17.5 ± 1.3 µM to reach half-maximal inhibition in data set [1] (IC50).

The compound `O=C(c1ccc(Cl)cc1)N1CCN(c2ccc(O)cc2)CC1` [compound 9, (4‐(4‐Hydroxyphenyl)piperazin‐1‐yl)(4‐chlorophenyl)methanone] came in with an IC50 in data set [1] of 8.9 ± 0.9 µM.

Consider `Nc1ccccc1C(=O)N1CCN(c2ccc(O)cc2)CC1` [compound 32, (4‐(4‐Hydroxyphenyl)piperazin‐1‐yl)(2‐aminophenyl)methanone], for which the IC50 in data set [1] amounted to 66.4 ± 2.1 µM.

In turn, `O=C(c1ccc(Br)cc1)N1CCN(c2ccc(O)cc2)CC1` [compound 13, (4‐(4‐Hydroxyphenyl)piperazin‐1‐yl)(4‐bromophenyl)methanone] came in with a melting point of 190 to 191 °C. In addition, in data set [1], the IC50 was found to be 39.6 ± 0.9 µM.

The compound `O=C(c1ccccc1F)N1CCN(c2ccc(O)cc2)CC1` [compound 4, (4‐(4‐Hydroxyphenyl)piperazin‐1‐yl)(2‐fluorophenyl)methanone] came in with a melting point of 142 to 143 °C. In data set [1], this compound registered an IC50 of 15.2 ± 0.9 µM.

In turn, `Cc1ccc(C(=O)N2CCN(c3ccc(O)cc3)CC2)c(C)c1` [compound 27, [4‐(4‐Hydroxyphenyl)piperazin‐1‐yl](2,4‐dimethylphenyl)methanone] yielded a melting point of 164 to 165 °C. For the same compound, the IC50 in data set [1] came to 33.7 ± 0.7 µM.

As for `O=C(c1ccccc1Br)N1CCN(c2ccc(O)cc2)CC1` [compound 11, (4‐(4‐Hydroxyphenyl)piperazin‐1‐yl)(2‐bromophenyl)methanone], the melting point lay within 180 to 181 °C. Further, the IC50 in data set [1] was < 5 µM and 4.5 µM. Also, the “cytotoxic effect (MTT)” value with B16F10 cells is given as “no cytotoxic effect”. Also, the “inhibitory effect on monophenolase activity of AbTYR” value (“inhibitory effect” for short) in data set [2] was “active inhibitors”. This compound registered a half-maximal effective concentration (EC50) in data set [3] of 13.2 ± 1.1 µM.

In turn, `O=C(c1ccccc1Cl)N1CCN(c2ccc(O)cc2)CC1` [compound 7, (4‐(4‐Hydroxyphenyl)piperazin‐1‐yl)(2‐chlorophenyl)methanone] yielded a melting point of 169 to 170 °C. In addition, in data set [1], the IC50 is < 5 µM and 2.6 µM. For the same compound, the “cytotoxic effect (MTT)” value with B16F10 cells is given as “no cytotoxic effect”. In addition, the “inhibitory effect” value in data set [2] was “active inhibitors”. Besides, the EC50 in data set [3] worked out at 13.2 ± 0.5 µM.

`O=C(c1ccccc1[N+](=O)[O-])N1CCN(c2ccc(O)cc2)CC1` [compound 28, (4‐(4‐hydroxyphenyl)piperazin‐1‐yl)(2‐nitrophenyl)methanone] registered a melting point of 184 to 185 °C. Besides, the concentration for half-maximal inhibition (IC50) in data set [1] was 7.4 ± 0.7 µM.

Turning to `Nc1ccc(C(=O)N2CCN(c3ccc(O)cc3)CC2)cc1` [compound 34, (4‐(4‐Hydroxyphenyl)piperazin‐1‐yl)(4‐aminophenyl)methanone], the melting point fell in the range of 94 to 95 °C. In data set [1], this compound came in with an IC50 of 43.9 ± 3.4 µM.

As for `O=C(c1ccc(C(F)(F)F)cc1C(F)(F)F)N1CCN(c2ccc(O)cc2)CC1` [compound 20, (4‐(4‐Hydroxyphenyl)piperazin‐1‐yl)(2,4‐bis(trifluoromethyl)phenyl)methanone], the melting point fell in the range of 194 to 195 °C. Half-maximal inhibition in data set [1] (IC50) was put at 18.2 ± 2.4 µM.

For `O=C(c1ccccc1C(F)(F)F)N1CCN(c2ccc(O)cc2)CC1` [compound 17, (4‐(4‐Hydroxyphenyl)piperazin‐1‐yl)(2‐(trifluoromethyl)phenyl)methanone], the melting point lay within 152 to 153 °C. Also, the midpoint of inhibition in data set [1], the IC50, lay at 4.6 ± 0.3 µM. In addition, the “cytotoxic effect (MTT)” value in the data set with B16F10 cells was “no cytotoxic effect”. The “inhibitory effect” value in data set [2] was “active inhibitors”. The same compound returned an EC50 in data set [3] of 9 ± 0.9 µM.

Compound `O=C(c1ccc([N+](=O)[O-])cc1)N1CCN(c2ccc(O)cc2)CC1` [compound 30, (4‐(4‐Hydroxyphenyl)piperazin‐1‐yl)(4‐nitrophenyl)methanone] gave a melting point of 157 to 158 °C. The compound further showed an IC50 in data set [1] of 23.2 ± 1.5 µM.

On to `Cc1cccc(C(=O)N2CCN(c3ccc(O)cc3)CC2)c1` [compound 15, [4‐(4‐Hydroxyphenyl)piperazin‐1‐yl](3‐methylphenyl)methanone], for which the melting point was in the range of 155 to 156 °C. In data set [1], this compound returned an IC50 of 31.7 ± 0.5 µM.

`Nc1cccc(C(=O)N2CCN(c3ccc(O)cc3)CC2)c1` [compound 33, (4‐(4‐Hydroxyphenyl)piperazin‐1‐yl)(3‐aminophenyl)methanone]: the melting point lay in the range of 95 to 96 °C. The compound also yielded an IC50 in data set [1] of 35.7 ± 1.05 µM.

`O=C(c1ccc([N+](=O)[O-])cc1[N+](=O)[O-])N1CCN(c2ccc(O)cc2)CC1` [compound 31, (4‐(4‐Hydroxyphenyl)piperazin‐1‐yl)(2,4‐dinitrophenyl)methanone]: the melting point was 225 to 226 °C. The compound further registered an IC50 in data set [1] of 7.6 ± 0.05 µM.

Take `O=C(c1cccc(Br)c1)N1CCN(c2ccc(O)cc2)CC1` [compound 12, (4‐(4‐Hydroxyphenyl)piperazin‐1‐yl)(3‐bromophenyl)methanone]: in data set [1], the IC50 worked out at 16.4 ± 1.9 µM.

Take `O=C(c1ccccc1)N1CCN(c2ccc(O)cc2)CC1` [compound 2, (4‐(4‐Hydroxyphenyl)piperazin‐1‐yl)(phenyl)methanone]: the IC50 in data set [1] stood at 73.2 ± 3.5 µM.

Turning to `Cc1ccccc1C(=O)N1CCN(c2ccc(O)cc2)CC1` [compound 14, [4‐(4‐Hydroxyphenyl)piperazin‐1‐yl](2‐methylphenyl)methanone], the melting point was 127 to 128 °C. The IC50 in data set [1] came out at 29.9 ± 2 µM.

For `O=C(c1ccc(Br)cc1Br)N1CCN(c2ccc(O)cc2)CC1` [compound 26, (4‐(4‐Hydroxyphenyl)piperazin‐1‐yl)(2,4‐dibromophenyl)methanone], the melting point was 176 to 177 °C. For the same compound, half-maximal inhibition in data set [1] (IC50) required 9.5 ± 0.3 µM.

Take `O=C(c1cccc([N+](=O)[O-])c1)N1CCN(c2ccc(O)cc2)CC1` [compound 29, (4‐(4‐Hydroxyphenyl)piperazin‐1‐yl)(3‐nitrophenyl)methanone]: it took 21.8 ± 1.2 µM to reach half-maximal inhibition in data set [1] (IC50).

As to `O=C(c1cccc(C(F)(F)F)c1)N1CCN(c2ccc(O)cc2)CC1` [compound 18, (4‐(4‐Hydroxyphenyl)piperazin‐1‐yl)(3‐(trifluoromethyl)phenyl)methanone], the melting point lay within 127 to 128 °C. The compound further came in with an IC50 in data set [1] of 5.5 ± 0.2 µM.

Consider `O=C(c1ccc(C(F)(F)F)cc1)N1CCN(c2ccc(O)cc2)CC1` [compound 19, (4‐(4‐Hydroxyphenyl)piperazin‐1‐yl)(4‐(trifluoromethyl)phenyl)methanone], for which the melting point was in the range of 201 to 202 °C. The same compound yielded an IC50 in data set [1] of 35.1 ± 0.5 µM.

Turning to `O=C(c1cccc(Cl)c1)N1CCN(c2ccc(O)cc2)CC1` [compound 8, (4‐(4‐Hydroxyphenyl)piperazin‐1‐yl)(3‐chlorophenyl)methanone], the melting point was 138 to 139 °C. In data set [1], this compound came in with an IC50 of 9 ± 1 µM.

With `O=C(c1cccc(F)c1)N1CCN(c2ccc(O)cc2)CC1` [compound 5, (4‐(4‐Hydroxyphenyl)piperazin‐1‐yl)(3‐fluorophenyl)methanone], the melting point fell in the range of 145 to 146 °C. The compound further came in with an IC50 in data set [1] of 22.6 ± 1.3 µM.

On to `COc1ccc(C(=O)N2CCN(c3ccc(O)cc3)CC2)cc1` [compound 23, [4‐(4‐Hydroxyphenyl)piperazin‐1‐yl](4‐methoxyphenyl)methanone], for which the melting point is 177 to 178 °C. The compound further came in with an IC50 in data set [1] of 14.9 ± 0.7 µM.

The compound `Nc1ccc(C(=O)N2CCN(c3ccc(O)cc3)CC2)c(N)c1` [compound 35, (4‐(4‐Hydroxyphenyl)piperazin‐1‐yl)(2,4‐diaminophenyl)methanone] yielded a melting point of 80 to 81 °C. This compound also gave an IC50 in data set [1] of 82.4 ± 1.1 µM.

As to `O=C(c1ccc(-c2ccccc2)cc1)N1CCN(c2ccc(O)cc2)CC1` [compound 3, (4‐(4‐Hydroxyphenyl)piperazin‐1‐yl)(biphenyl‐4‐yl)methanone], half-maximal inhibition in data set [1] (IC50) was put at 128 ± 4.1 µM.

In the case of `COc1ccc(C(=O)N2CCN(c3ccc(O)cc3)CC2)c(OC)c1` [compound 24, [4‐(4‐Hydroxyphenyl)piperazin‐1‐yl](2,4‐dimethoxyphenyl)methanone], half-maximal inhibition in data set [1] (IC50) required 16.7 ± 2 µM.

In data set [1], `COc1cccc(C(=O)N2CCN(c3ccc(O)cc3)CC2)c1` [compound 22, [4‐(4‐Hydroxyphenyl)piperazin‐1‐yl](3‐methoxyphenyl)methanone] came in with an IC50 of 9.8 ± 0.4 µM.

Regarding `Cc1ccc(C(=O)N2CCN(c3ccc(O)cc3)CC2)cc1` [compound 16, [4‐(4‐Hydroxyphenyl)piperazin‐1‐yl](4‐methylphenyl)methanone], the melting point lay within 162 to 163 °C. The same compound showed an IC50 in data set [1] of 34.4 ± 0.5 µM.

(Values after PMC9828493, “Design, Synthesis, and in Vitro Evaluation of 4‐(4‐Hydroxyphenyl)piperazine‐Based Compounds Targeting Tyrosinase” (Chemmedchem, 2022).)
